Measured values taken from patent US20120046273A1, “COMPOUNDS AND COMPOSITIONS FOR COGNITION-ENHANCEMENT, METHODS OF MAKING, AND METHODS OF TREATING” (MITHRIDION, INC., priority 2009, published 2012).

System: not listed separately
Assay: PAMPA test
Settings: not given

Row | PAMPA (? × 106) | rate of crossing the lipid layer in the PAMPA test | SMILES
1 | 16.3 ? × 106 | highest rate of penetration | Cc1noc(C2(F)CCCNC2)n1 (stereo not shown) [Compound 118, 5-(3-fluoropiperidin-3-yl)-3-methyl-1,2,4-oxadiazole]

Molecular target: T1, human muscarinic M1 receptors (Homo sapiens, UniProt P11229)
T1 construct: expressed in transfected cells; host or cells: A9L cells (gift from Professor W Messer)
T1 sequence (P11229 1-460): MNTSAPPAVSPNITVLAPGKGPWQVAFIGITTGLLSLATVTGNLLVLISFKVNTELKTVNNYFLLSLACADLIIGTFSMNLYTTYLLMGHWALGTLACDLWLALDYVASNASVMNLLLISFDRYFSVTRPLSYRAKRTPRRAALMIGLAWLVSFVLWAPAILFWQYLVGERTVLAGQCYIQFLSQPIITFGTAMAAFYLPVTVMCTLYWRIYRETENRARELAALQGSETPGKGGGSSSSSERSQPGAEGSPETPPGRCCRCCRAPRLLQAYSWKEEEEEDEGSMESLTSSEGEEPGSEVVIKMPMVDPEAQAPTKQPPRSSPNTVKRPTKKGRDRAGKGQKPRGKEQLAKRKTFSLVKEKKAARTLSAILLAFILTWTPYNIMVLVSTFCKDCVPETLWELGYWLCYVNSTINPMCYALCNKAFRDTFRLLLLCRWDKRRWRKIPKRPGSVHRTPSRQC
Assay: Inositol phosphate production in huM1/A9L cells (IPOne TR-FRET)
Assay type: cell-based
Settings: percentage of maximal stimulation by carbachol
Experimental: (§1) Muscarinic M1 and M3 agonist activity was evaluated by measuring the stimulation of inositol phosphate (IP) production in the presence of lithium chloride from A9L cells transfected with expression plasmids containing human muscarinic M1 and M3 receptors, respectively. The cell lines were a gift from Professor W Messer, and the methods were as described in Tejada F R et al. J. Med. Chem. 2006; 49: 7518-31 except that the assay was scaled down to run in 384 well plates, and IP was measured in the cell lysates using the non-isotopic IPOne TR-FRET assay (CIS-BIO, Inc).
(§2) Cells were grown to 90% confluence in 384 well hi-base plates (Greiner Bio-One), compounds were added at suitable concentrations in growth medium containing 10 mM LiCL, buffered with an extra 10 mM HEPES (pH7.4), and incubated for 60 minutes at 37° C. Cells were lysed and assayed for IP following the manufacturer's instructions.
(§3) The value for a full agonist is 100%, while partial agonists give values below 100%.

Row | SMILES | huM1/A9L Smax
2 | Cc1noc(C2CCCNC2)n1 (single isomer, unassigned) [Compound 83, 3-methyl-5-(piperidin-3-yl)-1,2,4-oxadiazole] | 147%
3 | Cc1noc(C2CCCNC2)n1 (single isomer, unassigned) [Compound 84, 3-methyl-5-(piperidin-3-yl)-1,2,4-oxadiazole] | 129%
4 | [2H]C([2H])([2H])c1noc(C2CCCNC2)n1 (single isomer, unassigned) [Compound 89, 3-(methyl-d3)-5-(piperidin-3-yl)-1,2,4-oxadiazole] | 90%
5 | [2H]C([2H])([2H])c1noc(C2CCCNC2)n1 (single isomer, unassigned) [Compound 90, 3-(methyl-d3)-5-(piperidin-3-yl)-1,2,4-oxadiazole] | 81%
6 | Cc1noc(C2CCCN(C)C2)n1 (stereo not shown) [Compound 86, 3-Methyl-5-(1-methylpiperidin-3-yl)-1,2,4-oxadiazole] | 20%
7 | Cc1noc(C2CCC(C)NC2)n1 (stereo not shown) [Compound 102, 3-Methyl-5-(6-methylpiperidin-3-yl)-1,2,4-oxadiazole] | 14%

Same assay, conditions: potency relative to carbachol

Row | SMILES | huM1/A9L ED50 relative to CCh
8 | Cc1noc(C2CCCNC2)n1 (single isomer, unassigned) [Compound 83, 3-methyl-5-(piperidin-3-yl)-1,2,4-oxadiazole] | +/− (potency 0.5-2x CCh)
9 | Cc1noc(C2CCCNC2)n1 (single isomer, unassigned) [Compound 84, 3-methyl-5-(piperidin-3-yl)-1,2,4-oxadiazole] | + (potency 2-10x CCh)
10 | [2H]C([2H])([2H])c1noc(C2CCCNC2)n1 (single isomer, unassigned) [Compound 89, 3-(methyl-d3)-5-(piperidin-3-yl)-1,2,4-oxadiazole] | + (potency 2-10x CCh)
11 | [2H]C([2H])([2H])c1noc(C2CCCNC2)n1 (single isomer, unassigned) [Compound 90, 3-(methyl-d3)-5-(piperidin-3-yl)-1,2,4-oxadiazole] | +/− (potency 0.5-2x CCh)
12 | Cc1noc(C2CCCN(C)C2)n1 (stereo not shown) [Compound 86, 3-Methyl-5-(1-methylpiperidin-3-yl)-1,2,4-oxadiazole] | inactive
13 | Cc1noc(C2CCC(C)NC2)n1 (stereo not shown) [Compound 102, 3-Methyl-5-(6-methylpiperidin-3-yl)-1,2,4-oxadiazole] | inactive
14 | Cc1noc(C2(F)CCCNC2)n1 (stereo not shown) [Compound 118, 5-(3-fluoropiperidin-3-yl)-3-methyl-1,2,4-oxadiazole] | − (potency <0.5-0.1x CCh)

System: apomorphine induced climbing
Assay: Apomorphine induced climbing model of psychosis
Assay type: in vivo, CD-I mice
Settings: mice, sc
Experimental: As described in Costall et. al. European Journal of Pharmacology 1978, 50, 39. individual CD-I mice, 1-2 months old, were placed in a cylindrical wire mesh cage (13.2 cm high×13.2 cm diameter) constructed of steel wire 1 mm thick spaced at 1.2 cm^2. Cylinders were placed in a standard OptiMICE mouse cage (29×32×9×29 cm wide and 14 cm high) with adequate wood chip bedding provided. Observations of climbing (defined as 3 or more paws off the ground) were carried out every 5 minutes at a duration of 1 minute for 30 minutes. Animals were injected subcutaneously under isoflurane anesthesia with test compounds, reference compounds, which included clozapine, haloperidol, olanzapine and xanomeline, or PBS as a control. This was followed 5 minutes later by 2 mg/kg apomorphine hydrochloride. All drugs were dissolved in PBS or a mixture of (by volume) 96% PBS and 4% hydroxypropyl-beta-cyclodextrin, and dosed at a rate of 5 ml per kilogram of body weight. Following injections, animals were replaced in the mesh cages and observed for climbing (defined as 3 or more paws off the ground) every 5 minutes for a duration of 1 minute for 60 minutes after dosing.

Row | SMILES | activity in the apomorphine induced climbing model
15 | Cc1noc(C2CCCNC2)n1 (single isomer, unassigned) [Compound 83, 3-methyl-5-(piperidin-3-yl)-1,2,4-oxadiazole] | potent and effective
16 | [2H]C([2H])([2H])c1noc(C2CCCNC2)n1 (single isomer, unassigned) [Compound 89, 3-(methyl-d3)-5-(piperidin-3-yl)-1,2,4-oxadiazole] | potent and effective

System: pooled male human liver microsomes
Assay: Metabolism by human liver microsomes
Assay type: in vitro ADME
Settings: 6 hours incubation
Experimental: (§4) Compounds were incubated with pooled male human liver microsomes (BD Biosciences, #452172) and an NADP-regenerating system in a phosphate buffer (pH 7.4) for a total of 6 hours. Aliquots were removed every 2 hours, and 1% formic acid was added to halt the reaction. Samples were centrifuged, filtered through 0.2 micron spinfilter and the amount of each compound in the supernatants was quantitated using LC/MS/MS.

Row | SMILES | extent of metabolism in human liver microsomes
17 | Cc1noc(C2CCCNC2)n1 (single isomer, unassigned) [Compound 83, 3-methyl-5-(piperidin-3-yl)-1,2,4-oxadiazole] | metabolized significantly less in human liver microsomes than in rat liver microsomes
18 | Cc1noc(C2CCCNC2)n1 (single isomer, unassigned) [Compound 84, 3-methyl-5-(piperidin-3-yl)-1,2,4-oxadiazole] | metabolized significantly less in human liver microsomes than in rat liver microsomes
19 | [2H]C([2H])([2H])c1noc(C2CCCNC2)n1 (single isomer, unassigned) [Compound 89, 3-(methyl-d3)-5-(piperidin-3-yl)-1,2,4-oxadiazole] | metabolized significantly less in human liver microsomes than in rat liver microsomes
20 | [2H]C([2H])([2H])c1noc(C2CCCNC2)n1 (single isomer, unassigned) [Compound 90, 3-(methyl-d3)-5-(piperidin-3-yl)-1,2,4-oxadiazole] | metabolized significantly less in human liver microsomes than in rat liver microsomes

Same assay, conditions: human liver microsomes; as also in rat liver microsomes and FMO Supersomes

Row | SMILES | rate of metabolism compared with the other enantiomer
21 | Cc1noc(C2CCCNC2)n1 (single isomer, unassigned) [Compound 83, 3-methyl-5-(piperidin-3-yl)-1,2,4-oxadiazole] | metabolized faster than the enantiomers
22 | [2H]C([2H])([2H])c1noc(C2CCCNC2)n1 (single isomer, unassigned) [Compound 89, 3-(methyl-d3)-5-(piperidin-3-yl)-1,2,4-oxadiazole] | metabolized faster than the enantiomers

Molecular target: T2, human muscarinic M3 receptors (Homo sapiens, UniProt P20309)
T2 construct: expressed in transfected cells; host or cells: A9L cells (gift from Professor W Messer)
Assay: Inositol phosphate production in huM3/A9L cells (IPOne TR-FRET)
Assay type: cell-based
Settings: percentage of maximal stimulation by carbachol
Experimental: as §1, §2, §3

T2 sequence (P20309 whole entry): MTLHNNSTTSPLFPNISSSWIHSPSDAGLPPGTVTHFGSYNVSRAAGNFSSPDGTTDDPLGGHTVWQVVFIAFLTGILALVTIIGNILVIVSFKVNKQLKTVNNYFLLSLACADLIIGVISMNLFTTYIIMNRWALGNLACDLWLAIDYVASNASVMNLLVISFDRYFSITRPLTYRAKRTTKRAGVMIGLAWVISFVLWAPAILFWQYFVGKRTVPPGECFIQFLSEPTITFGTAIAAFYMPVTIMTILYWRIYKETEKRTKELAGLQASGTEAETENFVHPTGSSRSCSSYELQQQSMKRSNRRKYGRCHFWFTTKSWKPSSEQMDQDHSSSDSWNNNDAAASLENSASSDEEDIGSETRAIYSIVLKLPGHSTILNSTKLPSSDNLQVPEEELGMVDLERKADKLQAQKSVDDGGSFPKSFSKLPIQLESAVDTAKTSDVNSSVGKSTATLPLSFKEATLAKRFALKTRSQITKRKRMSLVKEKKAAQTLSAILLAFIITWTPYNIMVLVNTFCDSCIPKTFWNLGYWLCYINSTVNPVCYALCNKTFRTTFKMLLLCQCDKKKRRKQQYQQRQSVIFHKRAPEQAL

Row | SMILES | huM3/A9L Smax
23 | Cc1noc(C2CCCNC2)n1 (single isomer, unassigned) [Compound 83, 3-methyl-5-(piperidin-3-yl)-1,2,4-oxadiazole] | 47%
24 | Cc1noc(C2CCCNC2)n1 (single isomer, unassigned) [Compound 84, 3-methyl-5-(piperidin-3-yl)-1,2,4-oxadiazole] | 66%
25 | [2H]C([2H])([2H])c1noc(C2CCCNC2)n1 (single isomer, unassigned) [Compound 89, 3-(methyl-d3)-5-(piperidin-3-yl)-1,2,4-oxadiazole] | 86%
26 | [2H]C([2H])([2H])c1noc(C2CCCNC2)n1 (single isomer, unassigned) [Compound 90, 3-(methyl-d3)-5-(piperidin-3-yl)-1,2,4-oxadiazole] | 76%
27 | Cc1noc(C2CCCN(C)C2)n1 (stereo not shown) [Compound 86, 3-Methyl-5-(1-methylpiperidin-3-yl)-1,2,4-oxadiazole] | 20%
28 | Cc1noc(C2CCC(C)NC2)n1 (stereo not shown) [Compound 102, 3-Methyl-5-(6-methylpiperidin-3-yl)-1,2,4-oxadiazole] | 18%

Same assay, conditions: potency relative to carbachol

Row | SMILES | huM3/A9L ED50 relative to CCh
29 | Cc1noc(C2CCCNC2)n1 (single isomer, unassigned) [Compound 83, 3-methyl-5-(piperidin-3-yl)-1,2,4-oxadiazole] | − (potency <0.5-0.1x CCh)
30 | Cc1noc(C2CCCNC2)n1 (single isomer, unassigned) [Compound 84, 3-methyl-5-(piperidin-3-yl)-1,2,4-oxadiazole] | +/− (potency 0.5-2x CCh)
31 | [2H]C([2H])([2H])c1noc(C2CCCNC2)n1 (single isomer, unassigned) [Compound 89, 3-(methyl-d3)-5-(piperidin-3-yl)-1,2,4-oxadiazole] | +/− (potency 0.5-2x CCh)
32 | [2H]C([2H])([2H])c1noc(C2CCCNC2)n1 (single isomer, unassigned) [Compound 90, 3-(methyl-d3)-5-(piperidin-3-yl)-1,2,4-oxadiazole] | −− (potency <0.1x CCh)
33 | Cc1noc(C2CCCN(C)C2)n1 (stereo not shown) [Compound 86, 3-Methyl-5-(1-methylpiperidin-3-yl)-1,2,4-oxadiazole] | inactive
34 | Cc1noc(C2CCC(C)NC2)n1 (stereo not shown) [Compound 102, 3-Methyl-5-(6-methylpiperidin-3-yl)-1,2,4-oxadiazole] | inactive
35 | Cc1noc(C2(F)CCCNC2)n1 (stereo not shown) [Compound 118, 5-(3-fluoropiperidin-3-yl)-3-methyl-1,2,4-oxadiazole] | −− (potency <0.1x CCh)

System: pooled male Sprague-Dawley rat liver microsomes
Assay: Metabolism by rat liver microsomes
Assay type: in vitro ADME
Settings: 6 hours incubation
Experimental: as §4, with “Sprague-Dawley rat” for “human”, “#452501)” for “#452172)”

Row | SMILES | extent of metabolism in rat liver microsomes
36 | Cc1noc(C2CCCNC2)n1 (single isomer, unassigned) [Compound 83, 3-methyl-5-(piperidin-3-yl)-1,2,4-oxadiazole] | far more stable than compounds 126 and 127
37 | Cc1noc(C2CCCNC2)n1 (single isomer, unassigned) [Compound 84, 3-methyl-5-(piperidin-3-yl)-1,2,4-oxadiazole] | far more stable than compounds 126 and 127
38 | [2H]C([2H])([2H])c1noc(C2CCCNC2)n1 (single isomer, unassigned) [Compound 89, 3-(methyl-d3)-5-(piperidin-3-yl)-1,2,4-oxadiazole] | far more stable than compounds 126 and 127
39 | [2H]C([2H])([2H])c1noc(C2CCCNC2)n1 (single isomer, unassigned) [Compound 90, 3-(methyl-d3)-5-(piperidin-3-yl)-1,2,4-oxadiazole] | far more stable than compounds 126 and 127
